Measurements taken from ChEMBL document CHEMBL3259629, “Discovery and optimization of piperidyl-1,2,3-triazole ureas as potent, selective, and in vivo-active inhibitors of α/β-hydrolase domain containing 6 (ABHD6)” (J Med Chem, 2013).

Tests used:
Details in all cases: Neuro2a, 3 nM
[1] = target: T1, Platelet-activating factor acetylhydrolase IB subunit alpha1 (Mus musculus) (UniProt Q61205)
T1 sequence (whole entry): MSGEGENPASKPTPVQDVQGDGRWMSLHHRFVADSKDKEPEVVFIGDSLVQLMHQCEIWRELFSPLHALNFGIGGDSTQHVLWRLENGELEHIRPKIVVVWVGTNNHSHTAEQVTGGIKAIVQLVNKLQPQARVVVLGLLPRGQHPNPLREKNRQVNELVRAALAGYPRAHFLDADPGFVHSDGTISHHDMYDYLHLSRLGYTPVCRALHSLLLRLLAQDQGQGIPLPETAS
Description: Inhibition of Pafah1b3 in mouse Neuro2a cells at 3 nM after 4 hrs by ABPP-SILAC assay

[2] = target: Dipeptidyl peptidase 9 (Mus musculus) (UniProt Q8BVG4)
Description: Inhibition of DPP9 in mouse Neuro2a cells at 3 nM after 4 hrs by ABPP-SILAC assay

[3] = target: T2, Palmitoyl-protein thioesterase ABHD10, mitochondrial (Mus musculus) (UniProt Q6PE15)
T2 sequence (whole entry): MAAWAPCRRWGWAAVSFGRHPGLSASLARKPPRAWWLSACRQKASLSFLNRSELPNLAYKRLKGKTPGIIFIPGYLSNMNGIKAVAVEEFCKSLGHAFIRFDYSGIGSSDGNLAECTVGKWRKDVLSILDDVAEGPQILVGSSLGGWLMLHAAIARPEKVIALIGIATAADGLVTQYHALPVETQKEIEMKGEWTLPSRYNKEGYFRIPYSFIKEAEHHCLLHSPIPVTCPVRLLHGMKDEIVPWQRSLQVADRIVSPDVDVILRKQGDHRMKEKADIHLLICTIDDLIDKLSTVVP
Description: Inhibition of Abhd10 in mouse Neuro2a cells at 3 nM after 4 hrs by ABPP-SILAC assay

[4] = target: T3, Lon protease homolog, mitochondrial (Mus musculus) (UniProt Q8CGK3)
T3 sequence (whole entry): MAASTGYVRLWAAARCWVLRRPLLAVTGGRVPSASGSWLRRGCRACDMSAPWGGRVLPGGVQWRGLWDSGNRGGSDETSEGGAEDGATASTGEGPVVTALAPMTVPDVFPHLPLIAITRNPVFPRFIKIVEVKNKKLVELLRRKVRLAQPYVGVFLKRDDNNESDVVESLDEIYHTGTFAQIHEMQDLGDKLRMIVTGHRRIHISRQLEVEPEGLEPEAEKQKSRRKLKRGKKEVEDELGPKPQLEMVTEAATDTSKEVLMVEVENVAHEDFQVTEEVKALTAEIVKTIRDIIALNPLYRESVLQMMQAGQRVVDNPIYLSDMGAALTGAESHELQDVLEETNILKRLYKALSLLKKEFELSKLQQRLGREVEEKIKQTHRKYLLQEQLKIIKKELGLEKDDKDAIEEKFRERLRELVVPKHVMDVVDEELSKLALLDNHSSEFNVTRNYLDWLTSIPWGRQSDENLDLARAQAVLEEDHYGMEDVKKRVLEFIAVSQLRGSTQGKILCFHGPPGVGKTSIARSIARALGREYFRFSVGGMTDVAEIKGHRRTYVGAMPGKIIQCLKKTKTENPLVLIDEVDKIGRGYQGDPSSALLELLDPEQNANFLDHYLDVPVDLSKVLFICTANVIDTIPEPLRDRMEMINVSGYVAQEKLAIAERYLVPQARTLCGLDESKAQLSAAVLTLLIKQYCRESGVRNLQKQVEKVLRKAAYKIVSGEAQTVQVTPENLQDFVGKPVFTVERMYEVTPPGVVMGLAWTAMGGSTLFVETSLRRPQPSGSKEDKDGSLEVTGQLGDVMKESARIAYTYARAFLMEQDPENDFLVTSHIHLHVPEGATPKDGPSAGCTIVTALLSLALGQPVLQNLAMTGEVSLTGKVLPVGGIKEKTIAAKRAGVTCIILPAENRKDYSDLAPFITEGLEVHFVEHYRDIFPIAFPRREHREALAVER
Description: Inhibition of Lonp1 in mouse Neuro2a cells at 3 nM after 4 hrs by ABPP-SILAC assay

[5] = target: T4, Acyl-coenzyme A thioesterase 1 (Mus musculus) (UniProt O55137)
T4 sequence (whole entry): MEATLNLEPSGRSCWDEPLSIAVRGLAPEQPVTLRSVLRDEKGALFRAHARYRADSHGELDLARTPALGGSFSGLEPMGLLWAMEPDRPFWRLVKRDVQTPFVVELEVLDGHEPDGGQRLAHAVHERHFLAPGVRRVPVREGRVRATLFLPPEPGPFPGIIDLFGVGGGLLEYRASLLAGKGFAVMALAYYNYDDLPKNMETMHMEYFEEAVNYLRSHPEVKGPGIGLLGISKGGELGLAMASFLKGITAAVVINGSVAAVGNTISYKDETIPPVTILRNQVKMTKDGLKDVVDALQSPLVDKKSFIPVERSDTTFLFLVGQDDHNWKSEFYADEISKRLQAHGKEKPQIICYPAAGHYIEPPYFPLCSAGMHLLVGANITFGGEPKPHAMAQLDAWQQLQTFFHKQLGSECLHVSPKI
Description: Inhibition of Acot1 in mouse Neuro2a cells at 3 nM after 4 hrs by ABPP-SILAC assay

[6] = target: T5, Lysophospholipase-like protein 1 (Mus musculus) (UniProt Q3UFF7)
T5 sequence (whole entry): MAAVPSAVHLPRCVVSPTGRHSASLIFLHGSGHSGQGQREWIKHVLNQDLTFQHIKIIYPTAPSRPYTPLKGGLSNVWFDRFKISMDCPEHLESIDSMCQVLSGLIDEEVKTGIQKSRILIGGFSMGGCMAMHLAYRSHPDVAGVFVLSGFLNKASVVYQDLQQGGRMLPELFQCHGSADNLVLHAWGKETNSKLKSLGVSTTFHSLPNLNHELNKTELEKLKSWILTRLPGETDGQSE
Description: Inhibition of Lyplal1 in mouse Neuro2a cells at 3 nM after 4 hrs by ABPP-SILAC assay

[7] = target: T6, Glutamyl-tRNA(Gln) amidotransferase subunit A, mitochondrial (Mus musculus) (UniProt Q9CZN8)
T6 sequence (whole entry): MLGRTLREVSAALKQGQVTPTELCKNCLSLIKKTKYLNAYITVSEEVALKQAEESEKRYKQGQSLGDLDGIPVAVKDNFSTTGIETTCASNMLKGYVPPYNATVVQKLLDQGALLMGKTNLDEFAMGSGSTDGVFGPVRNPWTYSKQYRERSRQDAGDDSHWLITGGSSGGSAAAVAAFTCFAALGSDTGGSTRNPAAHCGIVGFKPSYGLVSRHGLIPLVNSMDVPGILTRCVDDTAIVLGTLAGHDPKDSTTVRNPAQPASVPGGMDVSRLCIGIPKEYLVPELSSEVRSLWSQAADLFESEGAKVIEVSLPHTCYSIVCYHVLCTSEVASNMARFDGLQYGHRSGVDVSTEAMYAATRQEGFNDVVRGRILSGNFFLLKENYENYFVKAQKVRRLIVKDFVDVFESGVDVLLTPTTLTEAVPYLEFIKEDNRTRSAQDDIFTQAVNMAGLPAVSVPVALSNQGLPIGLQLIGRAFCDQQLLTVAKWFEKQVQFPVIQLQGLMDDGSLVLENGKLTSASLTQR
Description: Inhibition of Qrsl1 in mouse Neuro2a cells at 3 nM after 4 hrs by ABPP-SILAC assay

[8] = target: Patatin-like phospholipase domain-containing protein 7 (Mus musculus) (UniProt A2AJ88)
Description: Inhibition of Pnpla7 in mouse Neuro2a cells at 3 nM after 4 hrs by ABPP-SILAC assay

Measured: inhibition

Chain of Patatin-like phospholipase domain-containing protein 7 (Mus musculus) (A2AJ88 whole entry, the tested form may be a part): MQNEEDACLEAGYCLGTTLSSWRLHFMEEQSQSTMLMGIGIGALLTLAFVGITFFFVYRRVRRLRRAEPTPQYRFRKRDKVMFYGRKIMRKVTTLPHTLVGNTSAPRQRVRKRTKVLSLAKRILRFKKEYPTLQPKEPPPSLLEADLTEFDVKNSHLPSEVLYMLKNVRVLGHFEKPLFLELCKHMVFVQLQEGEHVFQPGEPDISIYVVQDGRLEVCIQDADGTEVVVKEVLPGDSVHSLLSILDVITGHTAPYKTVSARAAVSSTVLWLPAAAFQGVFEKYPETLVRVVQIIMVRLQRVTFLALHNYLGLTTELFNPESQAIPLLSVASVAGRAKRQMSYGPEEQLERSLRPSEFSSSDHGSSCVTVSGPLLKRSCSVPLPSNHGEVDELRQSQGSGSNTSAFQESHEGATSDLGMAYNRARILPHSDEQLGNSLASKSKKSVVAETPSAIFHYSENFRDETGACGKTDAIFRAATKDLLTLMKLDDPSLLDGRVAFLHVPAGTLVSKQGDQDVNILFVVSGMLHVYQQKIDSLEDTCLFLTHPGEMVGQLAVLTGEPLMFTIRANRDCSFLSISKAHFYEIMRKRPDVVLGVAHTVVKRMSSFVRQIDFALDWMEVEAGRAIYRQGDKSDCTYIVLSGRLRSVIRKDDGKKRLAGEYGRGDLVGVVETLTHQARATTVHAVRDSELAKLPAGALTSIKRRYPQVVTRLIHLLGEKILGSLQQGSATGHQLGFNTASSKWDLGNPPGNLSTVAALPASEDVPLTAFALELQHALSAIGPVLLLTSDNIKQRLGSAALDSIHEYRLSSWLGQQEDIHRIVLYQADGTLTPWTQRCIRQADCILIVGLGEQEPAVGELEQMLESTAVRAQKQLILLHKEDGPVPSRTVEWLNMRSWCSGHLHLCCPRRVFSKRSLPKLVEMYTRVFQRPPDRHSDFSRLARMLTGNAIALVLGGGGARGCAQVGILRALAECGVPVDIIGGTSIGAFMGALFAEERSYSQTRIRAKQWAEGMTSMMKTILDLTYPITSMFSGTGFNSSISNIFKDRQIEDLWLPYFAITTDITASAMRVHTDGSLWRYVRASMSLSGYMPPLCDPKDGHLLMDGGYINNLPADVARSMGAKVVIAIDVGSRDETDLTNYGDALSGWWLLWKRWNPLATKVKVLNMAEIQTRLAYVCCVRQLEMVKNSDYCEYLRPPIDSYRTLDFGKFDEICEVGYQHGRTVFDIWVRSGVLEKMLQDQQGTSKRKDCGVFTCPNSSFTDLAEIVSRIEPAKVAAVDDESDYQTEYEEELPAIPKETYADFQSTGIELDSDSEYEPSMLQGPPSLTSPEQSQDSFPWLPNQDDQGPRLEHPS
Chain of Dipeptidyl peptidase 9 (Mus musculus) (Q8BVG4 whole entry): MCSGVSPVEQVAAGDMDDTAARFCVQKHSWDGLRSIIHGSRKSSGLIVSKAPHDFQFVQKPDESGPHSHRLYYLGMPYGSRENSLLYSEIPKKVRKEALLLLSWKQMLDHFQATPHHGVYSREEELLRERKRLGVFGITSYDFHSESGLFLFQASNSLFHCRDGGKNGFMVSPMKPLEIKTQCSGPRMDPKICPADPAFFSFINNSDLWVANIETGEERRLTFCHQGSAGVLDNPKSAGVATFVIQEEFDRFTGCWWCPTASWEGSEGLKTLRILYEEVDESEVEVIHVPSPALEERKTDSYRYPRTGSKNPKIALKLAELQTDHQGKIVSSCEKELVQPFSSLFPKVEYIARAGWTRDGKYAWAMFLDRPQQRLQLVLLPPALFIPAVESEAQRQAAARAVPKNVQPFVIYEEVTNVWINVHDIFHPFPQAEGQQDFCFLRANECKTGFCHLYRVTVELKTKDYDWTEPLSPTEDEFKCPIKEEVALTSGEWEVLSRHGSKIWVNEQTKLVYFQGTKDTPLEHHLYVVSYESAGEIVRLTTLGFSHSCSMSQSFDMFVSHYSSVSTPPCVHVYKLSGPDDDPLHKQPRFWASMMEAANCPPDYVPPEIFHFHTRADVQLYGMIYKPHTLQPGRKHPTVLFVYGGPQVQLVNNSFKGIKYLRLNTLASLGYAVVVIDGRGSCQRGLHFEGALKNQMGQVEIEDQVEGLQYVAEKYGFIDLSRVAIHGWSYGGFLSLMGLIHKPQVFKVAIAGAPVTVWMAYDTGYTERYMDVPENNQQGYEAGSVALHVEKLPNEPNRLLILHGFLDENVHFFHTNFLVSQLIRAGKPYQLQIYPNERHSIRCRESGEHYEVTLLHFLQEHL

O=C(N1CCCCC1c1ccccc1)n1cc(-c2ccc(-c3cccc(CO)c3)cc2)nn1 (racemic)
< 50%: all assays above

O=C(c1cccc(-c2ccc(-c3cn(C(=O)N4CCCCC4c4ccccc4)nn3)cc2)c1)N1CCCCC1 (racemic)
< 50%: all assays above

O=C(O)c1cccc(-c2ccc(-c3cn(C(=O)N4CCCCC4Cc4ccccc4)nn3)cc2)c1 (racemic)
< 50%: all assays above
